Experimental data: US9249125B2, “Pyrazole derivatives as p38 MAP inhibitors” (RESPIVERT LIMITED, priority 2012, dated 2016)

Experiments:
[1] = molecular target: cSrc (Homo sapiens (Human), UniProt P12931); experiment: c-Src enzyme inhibition (FRET, Z-LYTE); format: biochemical
Summary of the method: (§1)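 Z-LYTE FRET kinase assay: enzyme (3000 or 2000 ng/mL stock, respectively) preincubated 2 h at RT with compound (4–0.004 μg/mL stocks), then FRET peptide plus ATP (800 μM stock for c-Src, 60 μM for Syk) added for 1 h. Protease development 1 h; phosphorylation from coumarin/fluorescein emission ratio.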

[2] = system: d-U937 cells; experiment: Cell viability: MTT assay; format: cell-based, human; details: 1 μg/mL
Summary of the method: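 Differentiated U937 cells were exposed to compound at 1 or 10 μg/mL either 4 h in 5% FCS RPMI1640 or 24 h in 10% FCS RPMI1640, then given MTT for 1 h, DMSO-solubilised and read at 550 nm. Percent viability loss versus 0.5% DMSO vehicle; apparent gains appear negative.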

[3] = molecular target: Syk (Homo sapiens (Human), UniProt P43405); experiment: Syk enzyme inhibition (FRET, Z-LYTE); format: biochemical
Summary of the method: as §1

[4] = system: LPS-induced IL-8 release in d-U937 cells; experiment: LPS-induced IL-8 release in d-U937 cells; format: cell-based; details: Homo sapiens, dU937, read-out: LPS Induced Release of Cytokine in d-937 Cells IL-8 IC50
Summary of the method: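 PMA (100 ng/mL, 48–72 hr)-differentiated U937; cpd 2 hr pre-inc; LPS 0.1 μg/mL (E. coli O111:B4) 4 hr. Supernatant TNFα/IL-8 by sandwich ELISA. IL-8 inhibition per concentration vs vehicle; REC50 from curve fit.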

[5] = molecular target: p38 MAPKα (Homo sapiens (Human), UniProt Q16539); experiment: p38 MAPKα enzyme inhibition (FRET, Z-LYTE); format: biochemical
[6] = system: Poly I:C-induced ICAM-1 expression in BEAS2B cells; experiment: Poly I:C-induced ICAM-1 expression in BEAS2B cells; format: cell-based; details: Homo sapiens, BEAS-2B, read-out: Poly IC induced ICAM1 in BEAS2B IC50
Summary of the method: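 BEAS2B human bronchial epithelial cells pre-incubated with compound for 2 hr, then transfected with 1 μg/mL poly I:C plus Oligofectamine. At 18 hr, surface ICAM-1 measured by cell-based ELISA (HRP, OD450–655). Signal corrected for cell number by crystal violet OD595.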

[7] = system: LPS-induced TNFα release in d-U937 cells; experiment: LPS-induced TNFα release in d-U937 cells; format: cell-based; details: Homo sapiens, dU937, relative to 10 μg/mL BIRB796, read-out: LPS Induced Release of Cytokine in d-937 Cells TNFα REC50
Summary of the method: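 Read-out: TNFα and IL-8 released into supernatant, sandwich ELISA, expressed as inhibition versus vehicle at each dose and fitted to give REC50. Cells were PMA-differentiated U937 (100 ng/mL, 48–72 hr), compound-exposed 2 hr before a 4 hr LPS stimulus (0.1 μg/mL).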

p38 MAPKα, sequence (Q16539 whole entry): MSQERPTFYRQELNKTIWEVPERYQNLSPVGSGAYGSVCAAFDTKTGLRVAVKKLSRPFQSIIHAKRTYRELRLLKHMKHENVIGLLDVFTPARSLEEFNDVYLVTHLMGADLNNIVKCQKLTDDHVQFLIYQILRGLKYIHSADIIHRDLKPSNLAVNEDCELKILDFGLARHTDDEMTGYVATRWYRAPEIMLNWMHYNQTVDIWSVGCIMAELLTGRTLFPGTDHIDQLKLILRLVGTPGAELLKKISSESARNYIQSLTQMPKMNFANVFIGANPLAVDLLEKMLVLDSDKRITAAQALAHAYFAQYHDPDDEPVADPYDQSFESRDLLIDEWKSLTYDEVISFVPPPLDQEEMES
cSrc, sequence (P12931 whole entry, looked up): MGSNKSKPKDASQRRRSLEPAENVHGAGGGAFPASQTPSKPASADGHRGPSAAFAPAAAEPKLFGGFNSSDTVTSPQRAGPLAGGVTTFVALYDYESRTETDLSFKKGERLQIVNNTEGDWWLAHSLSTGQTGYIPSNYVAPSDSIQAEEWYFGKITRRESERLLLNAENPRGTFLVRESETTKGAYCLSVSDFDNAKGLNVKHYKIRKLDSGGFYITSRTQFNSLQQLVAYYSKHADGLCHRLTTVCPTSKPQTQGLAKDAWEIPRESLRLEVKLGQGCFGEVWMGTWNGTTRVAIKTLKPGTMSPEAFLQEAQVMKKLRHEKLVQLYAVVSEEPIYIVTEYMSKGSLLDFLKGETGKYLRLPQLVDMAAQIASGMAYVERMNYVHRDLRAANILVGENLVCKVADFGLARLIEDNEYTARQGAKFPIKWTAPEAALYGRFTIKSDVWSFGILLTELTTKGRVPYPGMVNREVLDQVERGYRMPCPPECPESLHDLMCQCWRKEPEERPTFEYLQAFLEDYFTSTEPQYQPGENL

Structure (SMILES) | IC50 [1] [nM] | MTT Assay Cell viability at time point in d-U937 cells 4 h [2] | MTT Assay Cell viability at time point in d-U937 cells 24 h [2] | IC50 [3] [nM] | IC50 [4] [nM] | IC50 [5] [nM] | IC50 [6] [nM] | EC50 [7] [nM]
Cc1cc(Nc2nccc(Oc3ccc(NC(=O)Nc4cc(C(C)(C)C)nn4-c4ccc(=O)n(CCN5CCOCC5)c4)c4ccccc34)n2)cc2cn[nH]c12 [Example 89, 1-(3-(tert-butyl)-1-(1-(2-morpholinoethyl)-6-oxo-1,6-dihydropyridin-3-yl)-1H-pyrazol-5-yl)-3-(4-((2-((7-methyl-1H-indazol-5-yl)amino)pyrimidin-4-yl)oxy)naphthalen-1-yl)urea] | < 1 | −ve (−ve and +ve indicate that the value is below and above respectively, the no significant effect threshold, defined as 30% inhibition at 1 μg/mL at the time point indicated.) | +ve (−ve and +ve indicate that the value is below and above respectively, the no significant effect threshold, defined as 30% inhibition at 1 μg/mL at the time point indicated.) | 3 | 28.8 | 47 | 17.1 | 10.8
Cc1ccc(-n2nc(C(C)(C)C)cc2NC(=O)Nc2ccc(Oc3ccnc(Nc4cccc5cc[nH]c45)n3)c3ccccc23)cc1 [Example 17] | 138 | −ve (−ve and +ve indicate that the value is below and above respectively, the no significant effect threshold, defined as 30% inhibition at 1 μg/mL at the time point indicated.) | −ve (−ve and +ve indicate that the value is below and above respectively, the no significant effect threshold, defined as 30% inhibition at 1 μg/mL at the time point indicated.) | 280 | 7.4 | 376 | 8.4 | 8.7
Cc1ccc(-n2nc(C(C)(C)C)cc2NC(=O)Nc2ccc(Oc3ccnc(Nc4ccc5ncn(C)c5c4)n3)c3ccccc23)cc1 [Example 31, 1-(3-(tert-butyl)-1-(p-tolyl)-1H-pyrazol-5-yl)-3-(4-((2-((1-methyl-1H-benzo[d]imidazol-6-yl)amino)pyrimidin-4-yl)oxy)naphthalen-1-yl)urea] | 6 | −ve (−ve and +ve indicate that the value is below and above respectively, the no significant effect threshold, defined as 30% inhibition at 1 μg/mL at the time point indicated.) | −ve (−ve and +ve indicate that the value is below and above respectively, the no significant effect threshold, defined as 30% inhibition at 1 μg/mL at the time point indicated.) | 199 | 0.6 | 33 | 2.3 | 0.3
CC(C)(C)c1cc(NC(=O)Nc2ccc(Oc3ccnc(Nc4ccc5[nH]ncc5c4)n3)c3ccccc23)n(-c2ccc(OCCN3CCOCC3)cc2)n1 [Example 12, 1-(4-((2-((1H-Indazol-5-yl)amino)pyrimidin-4-yl)oxy)naphthalen-1-yl)-3-(3-(tert-butyl)-1-(4-(2-morpholinoethoxy)phenyl)-1H-pyrazol-5-yl)urea] | 13 | −ve (−ve and +ve indicate that the value is below and above respectively, the no significant effect threshold, defined as 30% inhibition at 1 μg/mL at the time point indicated.) | −ve (−ve and +ve indicate that the value is below and above respectively, the no significant effect threshold, defined as 30% inhibition at 1 μg/mL at the time point indicated.) | 22 | 2 | 77 | 21.6 | 1.6
Cc1ccc(-n2nc(C(C)(C)C)cc2NC(=O)Nc2ccc(Oc3ccnc(Nc4ccc5[nH]ncc5c4)n3)c3ccccc23)cc1 [Example 22, 1-(4-((2-((1H-indazol-5-yl)amino)pyrimidin-4-yl)oxy)naphthalen-1-yl)-3-(3-(tert-butyl)-1-(p-tolyl)-1H-pyrazol-5-yl)urea] | 19 | −ve (−ve and +ve indicate that the value is below and above respectively, the no significant effect threshold, defined as 30% inhibition at 1 μg/mL at the time point indicated.) | −ve (−ve and +ve indicate that the value is below and above respectively, the no significant effect threshold, defined as 30% inhibition at 1 μg/mL at the time point indicated.) | 26 | 1.5 | 56 | 2.5 | 4.7
Cc1ccc(-n2nc(C(C)(C)C)cc2NC(=O)Nc2ccc(Oc3ccnc(Nc4ccc5c(c4)ncn5C)n3)c3ccccc23)cc1 [Example 4, 1-(3-(tert-Butyl)-1-(p-tolyl)-1H-pyrazol-5-yl)-3-(4-((2-((1-methyl-1H-benzo[d]imidazol-5-yl)amino)pyrimidin-4-yl)oxy)naphthalen-1-yl)urea] | 4 | −ve (−ve and +ve indicate that the value is below and above respectively, the no significant effect threshold, defined as 30% inhibition at 1 μg/mL at the time point indicated.) | −ve (−ve and +ve indicate that the value is below and above respectively, the no significant effect threshold, defined as 30% inhibition at 1 μg/mL at the time point indicated.) | 14 | 2 | 19 | 2.4 | 2.4
Cc1ccc(-n2nc(C(C)(C)C)cc2NC(=O)Nc2ccc(Oc3ccnc(Nc4ccc5cn[nH]c5c4)n3)c3ccccc23)cc1 [Example 24, 1-(4-((2-((1H-indazol-6-yl)amino)pyrimidin-4-yl)oxy)naphthalen-1-yl)-3-(3-(tert-butyl)-1-(p-tolyl)-1H-pyrazol-5-yl)urea] | 102 | −ve (−ve and +ve indicate that the value is below and above respectively, the no significant effect threshold, defined as 30% inhibition at 1 μg/mL at the time point indicated.) | −ve (−ve and +ve indicate that the value is below and above respectively, the no significant effect threshold, defined as 30% inhibition at 1 μg/mL at the time point indicated.) | 1090 | 16.9 | 245 | 2.4 | 4.7
Cc1ccc(-n2nc(C(C)(C)C)cc2NC(=O)Nc2ccc(Oc3ccnc(Nc4ccc5[nH]cnc5c4)n3)c3ccccc23)cc1 [Example 30, 1-(4-((2-((1H-benzo[d]imidazol-5-yl)amino)pyrimidin-4-yl)oxy)naphthalen-1-yl)-3-(3-(tert-butyl)-1-(p-tolyl)-1H-pyrazol-5-yl)urea] | 17 | −ve (−ve and +ve indicate that the value is below and above respectively, the no significant effect threshold, defined as 30% inhibition at 1 μg/mL at the time point indicated.) | −ve (−ve and +ve indicate that the value is below and above respectively, the no significant effect threshold, defined as 30% inhibition at 1 μg/mL at the time point indicated.) | > 1600 | 7.7 | 89 | 4.7 | 1.8
Cc1ccc(-n2nc(C(C)(C)C)cc2NC(=O)Nc2ccc(Oc3cc(Nc4ccc5[nH]ncc5c4)ncn3)c3ccccc23)cc1 [Example 23, 1-(4-((6-((1H-indazol-5-yl)amino)pyrimidin-4-yl)oxy)naphthalen-1-yl)-3-(3-(tert-butyl)-1-(p-tolyl)-1H-pyrazol-5-yl)urea] | 16 | −ve (−ve and +ve indicate that the value is below and above respectively, the no significant effect threshold, defined as 30% inhibition at 1 μg/mL at the time point indicated.) | −ve (−ve and +ve indicate that the value is below and above respectively, the no significant effect threshold, defined as 30% inhibition at 1 μg/mL at the time point indicated.) | 57 | 2.7 | 30 | 4.3 | 3.3
Cc1ccc(-n2nc(C(C)(C)C)cc2NC(=O)Nc2ccc(Oc3ccnc(Nc4ccc5scnc5c4)n3)c3ccccc23)cc1 [Example 34, 1-(4-((2-(benzo[d]thiazol-5-ylamino)pyrimidin-4-yl)oxy)naphthalen-1-yl)-3-(3-(tert-butyl)-1-(p-tolyl)-1H-pyrazol-5-yl)urea] | 18 | −ve (−ve and +ve indicate that the value is below and above respectively, the no significant effect threshold, defined as 30% inhibition at 1 μg/mL at the time point indicated.) | −ve (−ve and +ve indicate that the value is below and above respectively, the no significant effect threshold, defined as 30% inhibition at 1 μg/mL at the time point indicated.) | > 1560 | 3.4 | 308 | 6.3 | 0.9
